Test results as given in patent US9803180B2, “S-adenosylmethionine (SAM) synthase variants for the synthesis of artificial cofactors” (LEIBNIZ-INSTITUT FUR PFLANZENBIOCHEMIE STIFTUNG DES …, priority 2013, dated 2017).
Entries after “also recorded” stand apart in the source; their conditions may differ.

Experiments:
Type in all cases: biochemical
[1] = Kinetic parameters for the conversion of S-alkylhomocysteines; standard SAM synthase assay, photometric detection of the cleaved phosphate
Source text: (§1) FIGS. 3A-3E show the rates of conversion of amino acid substrates catalyzed by the SAMS enzyme from Bacillus subtilis (FIG. 3A) and its variants I317V (FIG. 3B), I317A (FIG. 3C), I105V/I317A (FIG. 3D) or I105A/I317A (FIG. 3E) as a function of the substrate concentration. The reaction with L-methionine (open circles), D,L-methionine (closed circles), D,L-methionine-(methyl-D3) (x), D,L-ethionine (hatched circles), S-n-propyl-D,L-homocysteine (open triangles), S-n-butyl-D,L-homocysteine (closed triangles) or S-(2-methylvinyl)-D,L-homocysteine (diamonds) was assessed by spectrophotometric determination of phosphate which is released from the co-substrate ATP during the reaction.
The kinetic parameters for the conversion of S-alkylhomocysteines by Bacillus subtitlis SAM synthase and its variants as shown in Table 1 were calculated from the conversion rates of methionine and analogues as a function of the substrate concentration […] which were determined by the standard SAM synthase assay known in the art, i.e. by photometric detection of the cleaved phosphate.

[2] = Substrate spectrum: conversion of methionine and S-alkylhomocysteine derivatives by SAM synthase and variants; settings: for substrate acceptance (which amino acid substrates are converted): in words
Source text: as §1
For these studies, a series of S-alkylhomocysteines with linear (D,L-methionine-(methyl-D3), -ethionine, -propionine and -buthionine), branched (D,L-isopropionine and -isobuthionines), unsaturated (D,L-methylvinylhomocysteine) and functionalized (D,L-hydroxyethionine and -carboxymethionine) alkyl groups were synthesized from D,L-homocysteine thiolactone and tested for conversion by the cloned (wildtype) SAM synthase.
As derived from a homology model which is based on the crystal structure of the protein from E. coli (PDB code 1XRA), a hydrophobic cleft formed from two conserved isoleucine residues hinders the generation of cofactor analogues from amino acid substrates with bulky alkyl residues (FIG. 2). Accordingly, both residues were exchanged against less voluminous amino acids by site-directed mutagenesis.
To further probe the role of the proximate isoleucine residue I105 in substrate recognition, the variants I105V/I317A and I105A/I317A were generated. […] Compared to the wild-type enzyme (FIG. 3A), substrate specificity of the variant I105A/I317A (FIG. 3E) is inverted (S-n-propylhomocysteine>S-n-butylhomocysteine>ethionine>>methionine).

[3] = Time course of formation of SAM and SAM derivatives, analyzed by HPTLC; settings: racemic amino acid 10 mM, enzyme 10 mU ml^−1; in words
Description: FIGS. 4A-4C show the formation of SAM and SAM derivatives by the SAM synthase enzyme from Bacillus subtilis (FIG. 4A) or its variants I317V (FIG. 4B) and I317A (FIG. 4C). The conversion of the L-enantiomer of methionine (closed circles), ethionine (hatched circles), S-n-propylhomocysteine (open triangles) and S-n-butylhomocysteine (closed triangles) from the corresponding racemic amino acid (10 mM) was performed in the presence of equal amounts of enzyme (10 mU ml^−1). The reactions were analyzed by HPTLC.
The suitability of the wild-type protein and of variants with appropriate substrate specificity (I317V and I317A) for the synthesis of SAM and analogues was evaluated by high-performance thin-layer chromatography. Since the enzymes were not inhibited by the D-enantiomer of the amino acid substrates, methionine and its derivatives could be advantageously applied as racemic mixture of its stereoisomeres in these reactions. […] Accordingly, transformation of methionine and ethionine by SAMS-I317V in preparative synthetic reactions led to high conversion rates for the amino acid substrates. The syntheses were performed similar to the kinetic experiments but in larger scale (200 μmol). After prolonged incubation (18 hours) to reach maximum product yield, 84 and 89% of the L-amino acid was converted. […]

[4] = Preparative synthetic reactions (200 μmol): conversion of the L-amino acid; settings: for conversion: 8 hours; for L-amino acid converted: 18 hours, 200 μmol scale
Description: The suitability of the wild-type protein and of variants with appropriate substrate specificity (I317V and I317A) for the synthesis of SAM and analogues was evaluated by high-performance thin-layer chromatography. Since the enzymes were not inhibited by the D-enantiomer of the amino acid substrates, methionine and its derivatives could be advantageously applied as racemic mixture of its stereoisomeres in these reactions. […] Accordingly, transformation of methionine and ethionine by SAMS-I317V in preparative synthetic reactions led to high conversion rates for the amino acid substrates. The syntheses were performed similar to the kinetic experiments but in larger scale (200 μmol). After prolonged incubation (18 hours) to reach maximum product yield, 84 and 89% of the L-amino acid was converted. In the production of the n-propyl- and n-butyl analogues of SAM by the variant I317A, 43% and 28% of conversion could be reached after 8 hours of reaction time. After product purification by cation exchange chromatography on SP-Sephadex C-25, SAM and its homologs could be recovered in final yields of 25, 17, 8 and 11%, respectively. As proven by ^1H NMR, the enzymatically produced SAM contained a high excess (≧90%) of the biologically active (S,S)-epimer.

[5] = Activity of further position 317 SAM synthase variants (Example 4)
Source text: The influence of position 317 on catalytic turnover and its crucial role in determination of substrate spectrum was additionally confirmed by introduction of other small- and medium-sized amino acid residues.

[6] = substrate S-n-butyl-D,L-homocysteine
[7] = substrate S-n-propyl-D,L-homocysteine
[8] = substrate S-(2-methylvinyl)-D,L-homocysteine
[9] = substrate D,L-methionine-(methyl-D3)

| Substance | S0.5 ([1]; substrate D,L-ethionine) [mM] | Vmax ([1]; substrate D,L-ethionine) [nmol/min/mg] | h ([1]; substrate D,L-ethionine) | Vmax ([1]; substrate D,L-methionine) [nmol/min/mg] | S0.5 [1, 6] | Vmax [1, 6] | h [1, 6] | S0.5 [1, 7] | Vmax [1, 7] | h [1, 7] | substrate acceptance (which amino acid substrates are converted) [2] | S0.5 ([1]; substrate D,L-methionine) [mM] | h ([1]; substrate D,L-methionine) | S0.5 ([1]; substrate L-methionine) [mM] | Vmax ([1]; substrate L-methionine) [nmol/min/mg] | h ([1]; substrate L-methionine) | product inhibition by SAM [3] | other results |
| --- | --- | --- | --- | --- | --- | --- | --- | --- | --- | --- | --- | --- | --- | --- | --- | --- | --- | --- |
| I105A/I317A: I105A/I317A SAM synthase variant (SEQ ID NO: 4) | 3.91 ± 0.27 | 3.0 ± 1.8 | 2.9 ± 0.4 | 0.8 ± 0.2 | =10.0 mM | =4.0 ± 0.2 nmol min^-1 mg^-1 | 0.8 ± 0.1 | =10.0 mM | =10.8 ± 0.1 nmol min^-1 mg^-1 | 1.0 ± 0.1 | acceptance of the artificial long-chain substrates only; also recorded: prefer long-chain substrates |  |  |  |  |  |  | substrate specificity (rank order) ([2]; FIG. 3E, compared to wild-type): S-n-propylhomocysteine>S-n-butylhomocysteine>ethionine>>methionine |
| I317A: I317A SAM synthase variant (SEQ ID NO: 2) of Bacillus subtilis SAM synthase | 2.99 ± 0.23 | 44.1 ± 1.6 | 1.2 ± 0.1 | 37.7 ± 0.8 | 3.56 ± 0.45 mM | 35.4 ± 2.6 nmol/min/mg | 1.4 ± 0.1 | 0.90 ± 0.05 mM | 34.2 ± 0.7 nmol/min/mg | 1.1 ± 0.1 | active on ethionine, propionine, buthionine and the unsaturated D,L-methylvinylhomocysteine | 0.92 ± 0.05 | 1.1 ± 0.1 | 0.46 ± 0.02 | 34.8 ± 0.5 | 1.3 ± 0.1 | much less affected by product inhibition; also recorded: less pronounced | S0.5 [1, 8]: 0.79 ± 0.04 mM; Vmax [1, 8]: 22.4 ± 0.4 nmol/min/mg; h [1, 8]: 1.2 ± 0.1; conversion ([4]; production of n-butyl analogue of SAM): 28%; conversion ([4]; production of n-propyl analogue of SAM): 43% |
| I317V: I317V SAM synthase variant (SEQ ID NO: 3) of Bacillus subtilis SAM synthase | 10.94 ± 2.70 | 51.2 ± 9.1 | 1.3 ± 0.1 | 446.2 ± 13.8 |  |  |  |  |  |  | also converts ethionine | 1.71 ± 0.12 | 1.3 ± 0.1 | 0.72 ± 0.04 | 408.0 ± 7.7 | 1.2 ± 0.1 |  | L-amino acid converted ([4]; ethionine): 89%; L-amino acid converted ([4]; methionine): 84% |
| I105V/I317A: I105V/I317A SAM synthase variant (SEQ ID NO: 6) | 4.25 ± 0.20 | 5.7 ± 0.3 | 4.6 ± 0.8 | 17.0 ± 2.0 | 4.20 ± 0.41 mM | 11.9 ± 0.9 nmol/min/mg | 2.0 ± 0.2 | 1.86 ± 0.41 mM | 17.7 ± 1.5 nmol/min/mg | 1.0 ± 0.1 | prefer long-chain substrates | 3.77 ± 1.02 | 1.0 ± 0.1 |  |  |  |  |  |
| I317C: Bacillus subtilis SAM synthase with position 317 substituted by cysteine; tolerably active enzyme |  |  |  |  |  |  |  |  |  |  |  |  |  |  |  |  |  | activity (conversion) ([5]; 5 mM D,L-buthionine): 6.0 ± 0.3 nmol/min/mg; activity (conversion) ([5]; 5 mM D,L-ethionine): 16.4 ± 0.7 nmol/min/mg; activity (conversion) ([5]; 5 mM D,L-methionine): 59.4 ± 0.4 nmol/min/mg; activity (conversion) ([5]; 5 mM D,L-propionine): 8.4 ± 0.3 nmol/min/mg |
| Wild-type: wildtype Bacillus subtilis S-Adenosylmethionine (SAM) synthase, SEQ ID NO: 1, recombinantly expressed in E. coli BL21 (DE3) [reference compound] |  |  |  | 90.8 ± 1.6 |  |  |  |  |  |  | did not accept any of these methionine derivatives | 1.92 ± 0.12 | 1.7 ± 0.2 | 1.04 ± 0.14 | 93.2 ± 3.1 | 1.1 ± 0.1 | inhibited by its product SAM | inhibition by the D-enantiomer of methionine ([1]; FIG. 3A, in words): not inhibited by the D-enantiomer of methionine; S0.5 [1, 9]: 1.86 ± 0.07 mM; Vmax [1, 9]: 79.8 ± 2.3 nmol/min/mg; h [1, 9]: 2.2 ± 0.2 |
